What was measured:
[1] = target: Tyrosine-protein kinase Fer (Homo sapiens) (UniProt P16591); assay: Inhibition of human FER catalytic domain expressed in baculovirus assessed as substrate phosphorylation using fluorescence-labelled peptides as substrate at 9 uM after 90 mins by microfluidic peptide phosphorylation assay
[2] = target: Serine/threonine-protein kinase pim-1 (Homo sapiens) (UniProt P11309); assay: Inhibition of human full length PIM1 expressed in baculovirus assessed as substrate phosphorylation using fluorescence-labelled peptides as substrate at 95 uM after 90 mins by microfluidic peptide phosphorylation assay
[3] = tested on: Tyrosine-protein kinase ABL1 (Homo sapiens), P00519 [H396P]; assay: Inhibition of human truncated ABL H396P mutant expressed in baculovirus assessed as substrate phosphorylation using fluorescence-labelled peptides as substrate at 0.1 uM after 90 mins by microfluidic peptide phosphorylation assay
[4] = target: Ribosomal protein S6 kinase alpha-4 (Homo sapiens) (UniProt O75676); assay: Inhibition of human full length MSK2 expressed in baculovirus assessed as substrate phosphorylation using fluorescence-labelled peptides as substrate at 0.1 uM after 90 mins by microfluidic peptide phosphorylation assay
[5] = target: Mitogen-activated protein kinase 14 (Homo sapiens) (UniProt Q16539); assay: Inhibition of human truncated p38 alpha expressed in Escherichia coli cell assessed as substrate phosphorylation using fluorescence-labelled peptides as substrate at 0.1 uM after 90 mins by microfluidic peptide phosphorylation assay
[6] = target: T1, Serine/threonine-protein kinase Nek2 (Homo sapiens) (UniProt P51955); assay: Inhibition of human full length NEK2 expressed in baculovirus assessed as substrate phosphorylation using fluorescence-labelled peptides as substrate at 0.1 uM after 90 mins by microfluidic peptide phosphorylation assay
T1 sequence (whole entry): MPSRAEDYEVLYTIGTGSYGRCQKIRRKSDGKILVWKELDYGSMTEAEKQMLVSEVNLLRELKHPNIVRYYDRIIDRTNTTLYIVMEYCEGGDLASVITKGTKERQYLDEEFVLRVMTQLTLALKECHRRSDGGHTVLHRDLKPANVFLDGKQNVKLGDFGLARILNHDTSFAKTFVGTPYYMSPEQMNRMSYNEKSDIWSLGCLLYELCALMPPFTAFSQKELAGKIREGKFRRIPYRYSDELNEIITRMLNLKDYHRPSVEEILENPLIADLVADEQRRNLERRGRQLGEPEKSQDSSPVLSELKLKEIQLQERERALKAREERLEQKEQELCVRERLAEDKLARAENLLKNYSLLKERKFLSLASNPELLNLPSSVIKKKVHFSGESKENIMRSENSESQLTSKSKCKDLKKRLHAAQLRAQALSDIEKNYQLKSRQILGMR

[7] = target: T2, Cytoplasmic tyrosine-protein kinase BMX (Homo sapiens) (UniProt P51813); assay: Inhibition of human full length BMX expressed in baculovirus assessed as substrate phosphorylation using fluorescence-labelled peptides as substrate at 420 uM after 90 mins by microfluidic peptide phosphorylation assay
T2 sequence (whole entry): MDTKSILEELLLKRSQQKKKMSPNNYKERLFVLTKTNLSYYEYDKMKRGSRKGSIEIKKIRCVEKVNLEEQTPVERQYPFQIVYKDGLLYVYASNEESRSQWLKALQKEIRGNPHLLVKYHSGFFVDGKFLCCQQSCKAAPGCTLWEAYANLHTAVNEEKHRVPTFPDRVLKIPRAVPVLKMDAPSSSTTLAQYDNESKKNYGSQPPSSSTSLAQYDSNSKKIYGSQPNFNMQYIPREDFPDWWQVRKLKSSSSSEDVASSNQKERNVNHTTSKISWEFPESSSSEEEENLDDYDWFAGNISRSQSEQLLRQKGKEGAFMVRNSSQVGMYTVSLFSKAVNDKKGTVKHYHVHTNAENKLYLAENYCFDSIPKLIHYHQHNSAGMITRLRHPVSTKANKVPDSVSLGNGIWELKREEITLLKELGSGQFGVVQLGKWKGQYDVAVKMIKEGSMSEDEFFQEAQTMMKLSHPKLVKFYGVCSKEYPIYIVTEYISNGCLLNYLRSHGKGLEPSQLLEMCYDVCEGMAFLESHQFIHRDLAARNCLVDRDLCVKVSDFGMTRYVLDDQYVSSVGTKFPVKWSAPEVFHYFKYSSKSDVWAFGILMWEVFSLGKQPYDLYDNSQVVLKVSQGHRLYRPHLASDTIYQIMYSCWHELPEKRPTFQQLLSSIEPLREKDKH

[8] = target: T3, Serine/threonine-protein kinase Sgk3 (Homo sapiens) (UniProt Q96BR1); assay: Inhibition of human full length SGK3 expressed in baculovirus assessed as substrate phosphorylation using fluorescence-labelled peptides as substrate at 70 uM after 90 mins by microfluidic peptide phosphorylation assay
T3 sequence (whole entry): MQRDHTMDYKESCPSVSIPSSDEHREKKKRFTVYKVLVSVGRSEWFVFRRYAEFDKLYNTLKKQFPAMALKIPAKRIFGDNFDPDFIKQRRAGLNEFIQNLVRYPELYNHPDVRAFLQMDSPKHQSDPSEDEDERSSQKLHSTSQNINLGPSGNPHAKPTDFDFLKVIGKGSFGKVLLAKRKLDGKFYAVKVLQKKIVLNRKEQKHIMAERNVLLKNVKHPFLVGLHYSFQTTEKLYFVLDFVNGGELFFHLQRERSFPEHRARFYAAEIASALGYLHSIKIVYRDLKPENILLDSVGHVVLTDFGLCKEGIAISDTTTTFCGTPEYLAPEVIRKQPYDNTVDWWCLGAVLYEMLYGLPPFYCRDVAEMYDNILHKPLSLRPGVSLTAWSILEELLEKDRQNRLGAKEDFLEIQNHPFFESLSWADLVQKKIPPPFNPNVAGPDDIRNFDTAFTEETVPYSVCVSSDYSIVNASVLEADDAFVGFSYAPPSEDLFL

[9] = target: Calcium/calmodulin-dependent protein kinase type II subunit beta (Homo sapiens) (UniProt Q13554); assay: Inhibition of human CAMK2 beta catalytic domain expressed in baculovirus assessed as substrate phosphorylation using fluorescence-labelled peptides as substrate at 0.2 uM after 90 mins by microfluidic peptide phosphorylation assay
[10] = target: Fibroblast growth factor receptor 3 (Homo sapiens) (UniProt P22607); assay: Inhibition of human FGFR3 catalytic domain expressed in baculovirus assessed as substrate phosphorylation using fluorescence-labelled peptides as substrate at 2 uM after 90 mins by microfluidic peptide phosphorylation assay
[11] = target: Hepatocyte growth factor receptor (Homo sapiens) (UniProt P08581); assay: Inhibition of human MET cytoplasmic domain expressed in baculovirus assessed as substrate phosphorylation using fluorescence-labelled peptides as substrate at 2 uM after 90 mins by microfluidic peptide phosphorylation assay
[12] = target: Aurora kinase B (Homo sapiens) (UniProt Q96GD4); assay: Inhibition of human full length AurB expressed in baculovirus assessed as substrate phosphorylation using fluorescence-labelled peptides as substrate at 8 uM after 90 mins by microfluidic peptide phosphorylation assay
[13] = target: Insulin receptor (Homo sapiens) (UniProt P06213); assay: Inhibition of human INSR catalytic domain expressed in baculovirus assessed as substrate phosphorylation using fluorescence-labelled peptides as substrate at 8 uM after 90 mins by microfluidic peptide phosphorylation assay

Chain of Calcium/calmodulin-dependent protein kinase type II subunit beta (Homo sapiens) (Q13554 whole entry, the tested form may be a part): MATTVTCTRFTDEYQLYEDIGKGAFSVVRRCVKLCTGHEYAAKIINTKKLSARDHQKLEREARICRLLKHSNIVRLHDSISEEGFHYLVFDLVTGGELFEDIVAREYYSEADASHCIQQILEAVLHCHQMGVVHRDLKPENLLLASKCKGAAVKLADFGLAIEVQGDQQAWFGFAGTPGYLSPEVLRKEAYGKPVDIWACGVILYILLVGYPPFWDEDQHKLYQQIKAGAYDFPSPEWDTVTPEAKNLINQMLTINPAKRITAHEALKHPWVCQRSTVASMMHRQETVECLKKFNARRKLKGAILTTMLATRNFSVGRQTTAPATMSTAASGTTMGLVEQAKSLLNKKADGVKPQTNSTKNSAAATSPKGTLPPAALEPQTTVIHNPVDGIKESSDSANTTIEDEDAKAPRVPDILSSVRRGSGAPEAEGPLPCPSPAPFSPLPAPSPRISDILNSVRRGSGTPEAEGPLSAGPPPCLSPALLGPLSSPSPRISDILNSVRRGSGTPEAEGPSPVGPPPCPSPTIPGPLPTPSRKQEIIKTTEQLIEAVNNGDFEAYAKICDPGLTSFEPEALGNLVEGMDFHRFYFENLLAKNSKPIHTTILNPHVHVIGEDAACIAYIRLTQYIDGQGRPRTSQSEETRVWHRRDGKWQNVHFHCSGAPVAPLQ
Chain of Tyrosine-protein kinase Fer (Homo sapiens) (P16591 whole entry, looked up, the tested form may be a part): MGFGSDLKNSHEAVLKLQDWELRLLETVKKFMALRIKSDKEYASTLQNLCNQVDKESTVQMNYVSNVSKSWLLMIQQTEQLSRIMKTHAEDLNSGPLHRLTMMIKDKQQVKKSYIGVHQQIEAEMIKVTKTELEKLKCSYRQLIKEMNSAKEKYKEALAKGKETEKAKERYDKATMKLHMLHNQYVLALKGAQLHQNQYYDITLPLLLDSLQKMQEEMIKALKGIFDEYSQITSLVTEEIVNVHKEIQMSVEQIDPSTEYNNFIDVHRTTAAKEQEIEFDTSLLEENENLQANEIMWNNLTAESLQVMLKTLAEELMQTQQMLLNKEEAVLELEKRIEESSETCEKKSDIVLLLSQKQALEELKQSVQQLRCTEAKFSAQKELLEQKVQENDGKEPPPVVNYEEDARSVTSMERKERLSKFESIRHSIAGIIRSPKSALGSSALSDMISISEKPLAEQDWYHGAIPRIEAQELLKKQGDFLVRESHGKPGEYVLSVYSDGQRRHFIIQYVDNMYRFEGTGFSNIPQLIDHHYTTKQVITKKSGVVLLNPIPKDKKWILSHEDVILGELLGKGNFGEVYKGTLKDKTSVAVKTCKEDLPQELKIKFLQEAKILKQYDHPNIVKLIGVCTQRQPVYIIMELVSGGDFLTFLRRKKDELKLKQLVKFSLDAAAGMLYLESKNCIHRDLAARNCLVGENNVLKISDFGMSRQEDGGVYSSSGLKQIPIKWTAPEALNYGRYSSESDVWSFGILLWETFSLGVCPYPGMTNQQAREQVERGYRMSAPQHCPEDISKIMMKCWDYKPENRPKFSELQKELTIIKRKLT
Chain of Hepatocyte growth factor receptor (Homo sapiens) (P08581 whole entry, the tested form may be a part): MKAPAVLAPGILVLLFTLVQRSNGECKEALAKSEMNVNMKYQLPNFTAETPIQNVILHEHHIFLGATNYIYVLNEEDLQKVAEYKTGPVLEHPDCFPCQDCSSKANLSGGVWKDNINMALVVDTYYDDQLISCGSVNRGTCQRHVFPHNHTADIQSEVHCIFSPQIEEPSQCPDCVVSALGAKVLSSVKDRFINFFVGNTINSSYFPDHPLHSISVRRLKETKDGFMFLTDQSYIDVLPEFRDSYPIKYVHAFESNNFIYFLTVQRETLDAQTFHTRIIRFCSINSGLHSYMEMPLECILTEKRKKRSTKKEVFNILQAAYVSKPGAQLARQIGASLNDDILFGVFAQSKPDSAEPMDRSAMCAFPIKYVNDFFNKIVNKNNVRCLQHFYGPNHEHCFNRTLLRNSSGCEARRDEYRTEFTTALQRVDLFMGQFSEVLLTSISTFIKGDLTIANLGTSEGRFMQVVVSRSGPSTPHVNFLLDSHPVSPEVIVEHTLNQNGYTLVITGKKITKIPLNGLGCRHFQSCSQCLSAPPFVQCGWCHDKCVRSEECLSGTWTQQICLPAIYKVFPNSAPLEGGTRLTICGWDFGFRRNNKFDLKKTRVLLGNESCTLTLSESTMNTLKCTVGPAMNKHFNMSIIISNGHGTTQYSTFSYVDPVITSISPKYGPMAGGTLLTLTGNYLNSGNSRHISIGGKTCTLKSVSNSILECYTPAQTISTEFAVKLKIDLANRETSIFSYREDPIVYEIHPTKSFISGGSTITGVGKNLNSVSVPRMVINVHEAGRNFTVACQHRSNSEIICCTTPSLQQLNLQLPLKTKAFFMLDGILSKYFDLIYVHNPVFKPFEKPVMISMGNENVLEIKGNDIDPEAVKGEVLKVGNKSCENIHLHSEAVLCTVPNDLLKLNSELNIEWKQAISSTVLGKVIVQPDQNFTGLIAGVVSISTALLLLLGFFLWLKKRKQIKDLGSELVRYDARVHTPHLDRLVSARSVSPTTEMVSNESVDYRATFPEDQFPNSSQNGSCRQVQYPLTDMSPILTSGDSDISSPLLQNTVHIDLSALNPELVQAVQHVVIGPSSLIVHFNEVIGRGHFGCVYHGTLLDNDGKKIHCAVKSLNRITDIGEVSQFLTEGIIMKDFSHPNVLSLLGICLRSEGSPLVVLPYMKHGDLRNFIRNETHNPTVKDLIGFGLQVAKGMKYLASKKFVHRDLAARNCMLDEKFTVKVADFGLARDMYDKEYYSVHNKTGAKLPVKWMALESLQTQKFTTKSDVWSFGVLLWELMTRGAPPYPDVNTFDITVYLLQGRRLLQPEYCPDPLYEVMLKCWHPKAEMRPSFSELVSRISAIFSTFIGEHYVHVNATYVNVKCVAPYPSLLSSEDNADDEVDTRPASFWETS
Chain of Mitogen-activated protein kinase 14 (Homo sapiens) (Q16539 whole entry, the tested form may be a part): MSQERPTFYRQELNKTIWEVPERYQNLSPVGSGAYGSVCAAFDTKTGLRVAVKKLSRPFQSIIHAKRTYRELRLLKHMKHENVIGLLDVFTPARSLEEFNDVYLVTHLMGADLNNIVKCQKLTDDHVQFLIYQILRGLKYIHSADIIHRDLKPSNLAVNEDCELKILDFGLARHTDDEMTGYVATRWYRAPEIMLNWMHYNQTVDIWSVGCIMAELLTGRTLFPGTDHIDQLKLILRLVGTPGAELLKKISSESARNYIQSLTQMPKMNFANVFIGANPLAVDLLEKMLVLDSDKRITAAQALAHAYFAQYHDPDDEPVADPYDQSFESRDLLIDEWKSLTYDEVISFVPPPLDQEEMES
Chain of Fibroblast growth factor receptor 3 (Homo sapiens) (P22607 23-806 limits assumed): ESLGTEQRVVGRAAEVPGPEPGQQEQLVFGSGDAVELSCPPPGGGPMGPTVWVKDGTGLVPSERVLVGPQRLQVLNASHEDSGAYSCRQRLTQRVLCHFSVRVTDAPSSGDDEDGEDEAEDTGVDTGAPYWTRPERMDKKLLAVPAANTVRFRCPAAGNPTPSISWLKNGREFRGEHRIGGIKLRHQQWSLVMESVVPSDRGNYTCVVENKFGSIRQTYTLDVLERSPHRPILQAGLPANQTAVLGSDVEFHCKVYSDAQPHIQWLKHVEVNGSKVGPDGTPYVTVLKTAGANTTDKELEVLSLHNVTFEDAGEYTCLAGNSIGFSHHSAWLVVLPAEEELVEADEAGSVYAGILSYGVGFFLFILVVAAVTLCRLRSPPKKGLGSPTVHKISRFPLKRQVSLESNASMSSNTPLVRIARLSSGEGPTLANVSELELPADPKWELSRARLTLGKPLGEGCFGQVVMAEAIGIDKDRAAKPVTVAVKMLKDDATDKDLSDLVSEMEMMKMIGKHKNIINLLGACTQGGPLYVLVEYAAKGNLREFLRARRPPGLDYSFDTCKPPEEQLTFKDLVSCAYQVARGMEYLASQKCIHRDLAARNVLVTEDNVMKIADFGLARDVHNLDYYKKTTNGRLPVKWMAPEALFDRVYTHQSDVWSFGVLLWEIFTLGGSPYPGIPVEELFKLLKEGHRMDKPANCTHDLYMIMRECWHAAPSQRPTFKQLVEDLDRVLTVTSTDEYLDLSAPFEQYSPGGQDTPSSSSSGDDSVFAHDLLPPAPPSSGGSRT
Chain of Aurora kinase B (Homo sapiens) (Q96GD4 whole entry, the tested form may be a part): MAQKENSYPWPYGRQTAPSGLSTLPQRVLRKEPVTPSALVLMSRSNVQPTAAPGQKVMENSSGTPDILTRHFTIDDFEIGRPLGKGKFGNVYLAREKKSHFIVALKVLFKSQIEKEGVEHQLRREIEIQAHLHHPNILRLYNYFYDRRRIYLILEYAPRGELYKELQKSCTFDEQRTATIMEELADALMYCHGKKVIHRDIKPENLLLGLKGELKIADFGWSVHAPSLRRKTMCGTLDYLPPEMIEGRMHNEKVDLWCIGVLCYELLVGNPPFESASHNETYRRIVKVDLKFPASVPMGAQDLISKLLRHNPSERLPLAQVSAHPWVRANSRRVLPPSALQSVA
Chain of Serine/threonine-protein kinase pim-1 (Homo sapiens) (P11309 whole entry, looked up, the tested form may be a part): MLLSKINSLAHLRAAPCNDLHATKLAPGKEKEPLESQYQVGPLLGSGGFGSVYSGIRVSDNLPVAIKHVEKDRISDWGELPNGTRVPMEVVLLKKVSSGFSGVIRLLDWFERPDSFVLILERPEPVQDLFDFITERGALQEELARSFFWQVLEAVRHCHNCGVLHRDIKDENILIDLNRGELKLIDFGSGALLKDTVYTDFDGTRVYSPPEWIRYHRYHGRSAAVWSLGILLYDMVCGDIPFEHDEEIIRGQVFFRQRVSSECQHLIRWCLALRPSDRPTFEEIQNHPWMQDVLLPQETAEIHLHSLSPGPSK

For NCC1CN(c2ncnc3[nH]c4cnccc4c23)CCO1 (stereo not drawn), the inhibition [1] was 11%.

In the case of NCCc1ccc(-c2ncnc3[nH]cnc23)cc1, the inhibition [2] is reported as 42.5%.

Molecule C[C@H](CN(C)C)Oc1nc(Nc2cc3cccc(Cl)c3cn2)cnc1C#N has an inhibition [3] of 1.5%, an inhibition [4] of 13.5% and an inhibition [5] of 1%. For the same molecule, the inhibition [6] was 2%.

With c1nc(N2CCOCC2)c2nc[nH]c2n1 the inhibition [7] was 62.5%.

CNCc1ccc(-c2ncnc3[nH]cnc23)cc1 gave an inhibition [8] of 58%.

Clc1ccc(C2(c3ccc(-c4ncnc5[nH]cnc45)cc3)CCNCC2)cc1 was tested, and the inhibition [9] was 11.5%.

Molecule NC1CCN(c2ncnc3[nH]ccc23)CC1 has an inhibition [10] of 0% and an inhibition [11] of 0%.

NCC1CCN(c2ncnc3[nH]ccc23)CC1 was tested, and the inhibition [12] was 76% and the inhibition [13] was 16.5%.

From ChEMBL document CHEMBL3132769, “Fragment growing to retain or alter the selectivity of anchored kinase hinge-binding fragments” (Medchemcomm, 2014)
